From patent publication US9970938B2, “Use of BUBR1 as a biomarker of drug response to furazanobenzimidazoles” (Basilea Pharmaceutica AG, priority 2011, dated 2018)

Tests used:
Format in all cases: cell-based, human
[1] = test system: A549; test: Crystal Violet assay of BAL27862-resistant cell line versus parental line
From the text: (§1) BAL27862-resistant sublines of human non-small cell lung cancer (H460 ATCC reference HTB-177; A549 ATCC reference CCL-185), ovarian cancer (SKOV3 ATCC reference HTB-77) lines were generated by long-term selection in complete cell culture medium (RPMI-1640 containing 10% FCS; Sigma-Aldrich) by stepwise increasing concentrations of BAL27862. […] The resistant sublines were expanded at the highest tolerated BAL27862 concentration and subsequently frozen and stored in liquid nitrogen.
(§2) After medium was removed, cells were fixed and stained by adding 50 μl Crystal Violet Staining (0.2% Crystal Violet in 50% Methanol) per well. Plates were incubated for 1 hour at room temperature. Subsequently the stain was decanted and plates were washed 4 times with double-distilled water. Plates were air-dried for several hours. Stain was dissolved by adding 100 μl buffer (0.1 M Tris pH 7.5, 0.2% SDS, 20% Ethanol) per well and shaking the plates. Absorbance at 590 nm was measured using a SpectraMax M2e plate reader (Molecular Devices). Anti-proliferative IC50 values were calculated from concentration response curves using GraphPad Prism software. Resistance factors were calculated as a ratio of BAL27862 IC50 in the resistant line variant versus the IC50 in the parental line.

[2] = test system: H460; test: as above
From the text: as §1, §2

[3] = test system: SKOV3 resistant 1; test: as above
From the text: as §1, §2

[4] = test system: SKOV3 resistant 2; test: as above
From the text: as §1, §2

[5] = test system: A549 NSCLC cells; test: Immunofluorescent staining of microtubules in cultured cells
Procedure: (§3) A549 human non-small cell lung cancer (NSCLC, ATCC reference number CCL-185) cells, HeLa cervical cancer cells (ATCC reference number CCL-2) and SKBR3 breast carcinoma cells (ATCC reference number HTB-30) were seeded at densities of 50% on round microscope coverslips and cultured for 24 hours in RPMI-1640 containing 10% FCS (also referred to as FBS) at 37° C., 5% CO2. Compounds to be tested were dissolved in DMSO. The cell culture medium was replaced with medium containing the diluted compound(s) (paclitaxel, vinblastine, colchicine and nocodazole were purchased from Sigma-Aldrich) or vehicle. After treatment, coverslips were washed and cells were fixed in methanol/acetone (1:1) for 5 minutes at room temperature and subsequently incubated in blocking buffer (0.5% BSA and 0.1% TX-100 in PBS) for 30 minutes at room temperature. Specimens were then incubated with anti-alpha-tubulin antibody (Sigma, 1:2000) for 1 hour at room temperature in blocking buffer. After several washing steps cells were incubated with AlexaFluor-488 goat-anti-mouse IgG (Molecular Probes, 1:3000) for 1 hour at room temperature followed by several washing steps with blocking buffer. Specimens were then mounted with ProLong Gold antifade (Molecular Probes), sealed with nail polish and examined with a Leica immunofluorescence microscope. Images were captured with a cooled CCD-camera and processed by ImageJ software.

[6] = test system: HeLa cervical cancer cells; test: as above; settings: 24 hours, 50 nM
Procedure: as §3

[7] = test system: SKBR3 breast cancer cells; test: as above; settings: 24 hours, 50 nM
Procedure: as §3

[8] = test system: HCT116 cells; test: Crystal Violet assay of siRNA-treated cells; settings: BUBR1 siRNA pool, 50 nM, 48 hours
Procedure: (§4) For siRNA experiments to assess effects on BUBR1 expression levels by immunoblotting and effects on tumour cell proliferation and viability using the YO-PRO assay (FIGS. 7, 9,10 and 11), and Crystal Violet Assay (FIGS. 12 and 13), cells were seeded in 6 well plates at an appropriate density: HeLa (cervical cancer cells; ATCC reference CCL-2) 2.5E+04 (for YO-PRO) or 4.0E+04 (for Crystal Violet) cells per well, H460 (NSCLC cells; ATCC reference HTB-177) 5.0E+04 cells per well, MCF-7 (breast carcinoma cells; ATCC reference HTB-22) 2.4E+05 cells per well, Panc1 (pancreatic cancer cells, ATCC reference CRL-1469) and HCT116 (colon cancer cells, ATCC reference CCI-247) 8E+04 cells per well, and were cultured at 37° C. and 5% CO2 in RPMI-1640 or DMEM containing 10% FCS (complete medium). Cells were transfected the following day with a mixture of four BUBR1 siRNAs (ON-Target-plus Smartpool L-004101, Dharmacon, see sequence information below), the four individual BUBR1 siRNAs (ON-Target-plus Set of four upgrade LU-004101) or non-targeting control siRNAs (ON-Target-plus non-targeting pool D001810, Dharmacon), using Hiperfect (Qiagen) for H460, Panc1 and HCT116 or Lipofectamine2000 (Invitrogen) for HeLa and MCF-7 according to manufacturer's instructions. The final concentration of siRNA was 10 nM (H460) or 20-30 nM (HeLa) or 20 nM (MCF-7, Panc1, HCT116). Cells were maintained at 37° C. and 5% CO2 for 24 hours before compound treatment for 48 hours, followed by YO-PRO analysis, Crystal Violet Assay or extraction for immunoblot assay. ON-Target-plus siRNAs are dual-strand siRNAs, chemically modified to improve specificity for the desired target.
(§5) Cells were incubated for 48 hours with DMSO or BAL27862 diluted in complete medium (final concentration DMSO 0.5%). After medium was removed, cells were fixed and stained by adding 1 ml Crystal Violet Staining (0.2% Crystal Violet in 50% Methanol) per well. Plates were incubated for 1 hour at room temperature. Subsequently the stain was decanted and plates were washed 4 times with double-distilled water. Plates were air-dried for several hours. Stain was dissolved by adding 2 ml buffer (0.1 M Tris pH 7.5, 0.2% SDS, 20% Ethanol) per well and shaking the plates. Absorbance at 590 nm was measured using a SpectraMax M2^e plate reader (Molecular Devices). In order to subtract starting cell numbers, a control plate was fixed and stained on the same day the compound was added. Final results were calculated by subtracting the starting cell absorbance from that of control (DMSO) or compound treated cells. Values lower than zero indicate cell death.

[9] = test system: HeLa cells; test: Crystal Violet assay of siRNA-treated cells; settings: 48 hours
Procedure: as §4, §5

[10] = test system: Panc1 cells; test: Crystal Violet assay of siRNA-treated cells; settings: BUBR1 siRNA pool, 30 nM, 48 hours
Procedure: as §4, §5

N#CCCNc1nonc1-c1nc2ccccc2n1CC(=O)c1ccc(N)cc1 [BAL27862, 3-(4-{1-[2-(4-Amino-phenyl)-2-oxo-ethyl]-1H-benzoimidazol-2-yl}-furazan-3-ylamino)-propionitrile]
resistance factors versus parental lines (based on IC50 determinations) [1]: 3.0 fold | resistance factors versus parental lines (based on IC50 determinations) [2]: 5.3 fold | resistance factors versus parental lines (based on IC50 determinations) [3]: 7.6 fold | resistance factors versus parental lines (based on IC50 determinations) [4]: 11.6 fold | microtubule phenotype of mitotic or G2/M arrested cells ([5]; 24 hours treatment, anti-alpha-tubulin staining): highly reproducible and distinct microtubule phenotype | microtubule phenotype, BAL27862 added for the last 4 hours of 24 hours vinblastine, colchicine, paclitaxel or nocodazole treatment ([5]; combination): disruption of the microtubule structures | microtubule phenotype of mitotic or G2/M arrested cells [6]: highly reproducible and distinct microtubule phenotype | microtubule phenotype of mitotic or G2/M arrested cells [7]: highly reproducible and distinct microtubule phenotype | cellular proliferation with reduced BUBR1 expression [8]: same effects were again observed | cellular proliferation with reduced BUBR1 expression ([9]; BUBR1 siRNA pool, 50 nM): same effects were again observed | effect on cellular proliferation after individual BUBR1 siRNAs ([9]; siRNA #1-4, 50 nM): decreased the effect of BAL27862 on cellular proliferation | cellular proliferation with reduced BUBR1 expression [10]: same effects were again observed
